Laboratory results from ChEMBL document CHEMBL5532749, “Synthesis and functional evaluation of proteinogenic amino acid-derived synthetic cannabinoid receptor agonists related to MPP-5F-PICA, MMB-5F-PICA, and MDMB-5F-PICA” (RSC Med Chem, 2024).

Assays:
Type in all cases: functional, cell-based
Cannabinoid receptor 1 [1] = molecular target: T1, Cannabinoid receptor 1 (Homo sapiens, UniProt P21554); test: Agonist activity at human CB1 receptor stably transfected in AtT20 cells incubated for 60 mins by FLIPR membrane potential assay
T1 sequence (P21554 whole entry): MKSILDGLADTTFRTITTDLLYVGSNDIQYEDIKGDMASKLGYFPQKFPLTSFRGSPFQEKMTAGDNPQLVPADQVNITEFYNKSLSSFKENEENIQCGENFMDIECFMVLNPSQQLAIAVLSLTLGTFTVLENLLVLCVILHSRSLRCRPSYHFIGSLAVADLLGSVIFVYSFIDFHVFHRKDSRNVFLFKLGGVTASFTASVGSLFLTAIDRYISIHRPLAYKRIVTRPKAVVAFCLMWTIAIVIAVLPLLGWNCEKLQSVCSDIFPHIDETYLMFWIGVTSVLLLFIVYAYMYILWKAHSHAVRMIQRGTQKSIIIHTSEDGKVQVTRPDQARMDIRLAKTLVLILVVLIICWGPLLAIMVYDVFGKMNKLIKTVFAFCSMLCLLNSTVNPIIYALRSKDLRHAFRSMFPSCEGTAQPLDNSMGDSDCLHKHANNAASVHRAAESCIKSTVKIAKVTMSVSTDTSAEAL

Cannabinoid receptor 2 [2] = molecular target: T2, Cannabinoid receptor 2 (Homo sapiens, UniProt P34972); test: Agonist activity at human CB2 receptor stably transfected in AtT20 cells incubated for 60 mins by FLIPR membrane potential assay
T2 sequence (P34972 whole entry): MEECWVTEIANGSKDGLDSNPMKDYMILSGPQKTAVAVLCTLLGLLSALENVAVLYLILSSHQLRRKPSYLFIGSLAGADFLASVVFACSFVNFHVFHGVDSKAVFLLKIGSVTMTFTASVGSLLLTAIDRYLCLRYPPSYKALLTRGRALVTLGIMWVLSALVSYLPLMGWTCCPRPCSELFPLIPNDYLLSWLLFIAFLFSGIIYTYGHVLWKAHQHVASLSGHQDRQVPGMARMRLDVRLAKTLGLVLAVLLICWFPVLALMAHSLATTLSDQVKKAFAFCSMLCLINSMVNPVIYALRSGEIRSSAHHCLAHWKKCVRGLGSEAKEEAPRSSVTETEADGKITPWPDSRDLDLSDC

Cannabinoid receptor 1 [3] = molecular target: T1, Cannabinoid receptor 1; test: Agonist activity at human CB1 receptor stably transfected in AtT20 cells assessed as maximal efficacy at 30 uM incubated for 60 mins by FLIPR membrane potential assay relative to control; conditions: filed as agonist
Cannabinoid receptor 2 [4] = molecular target: T2, Cannabinoid receptor 2; test: Agonist activity at human CB2 receptor stably transfected in AtT20 cells assessed as maximal efficacy at 30 uM incubated for 60 mins by FLIPR membrane potential assay relative to control; conditions: filed as agonist
Cannabinoid receptor 2 [5] = molecular target: T2, Cannabinoid receptor 2; test: Agonist activity at human CB2 receptor stably transfected in AtT20 cells assessed as maximal efficacy at 10 uM incubated for 60 mins by FLIPR membrane potential assay relative to control
Cannabinoid receptor 1 [6] = molecular target: T1, Cannabinoid receptor 1; test: Agonist activity at human CB1 receptor stably transfected in AtT20 cells assessed as maximal efficacy at 10 uM incubated for 60 mins by FLIPR membrane potential assay relative to control
Cannabinoid receptor 1 [7] = molecular target: T1, Cannabinoid receptor 1; test: Agonist activity at HA-tagged human CB1 receptor stably transfected in AtT20 cells assessed as maximal efficacy at 30 uM incubated for 60 mins by FLIPR membrane potential assay relative to control; conditions: filed as agonist
Cannabinoid receptor 1 [8] = molecular target: T1, Cannabinoid receptor 1; test: Agonist activity at HA-tagged human CB1 receptor stably transfected in AtT20 cells incubated for 60 mins by FLIPR membrane potential assay
Cannabinoid receptor 2 [9] = molecular target: T2, Cannabinoid receptor 2; test: Agonist activity at HA-tagged human CB2 receptor stably transfected in AtT20 cells assessed as maximal efficacy at 30 uM incubated for 60 mins by FLIPR membrane potential assay relative to control; conditions: filed as agonist
Cannabinoid receptor 2 [10] = molecular target: T2, Cannabinoid receptor 2; test: Agonist activity at HA-tagged human CB2 receptor stably transfected in AtT20 cells incubated for 60 mins by FLIPR membrane potential assay

Compound | EC50 (Cannabinoid receptor 1 [1]; read-out: EC50) [nM] | EC50 (Cannabinoid receptor 2 [2]) [nM] | Emax (Cannabinoid receptor 1 [3]) [%] | Emax (Cannabinoid receptor 2 [4]) [%] | also measured
COC(=O)[C@@H](Cc1ccccc1)NC(=O)c1cn(CCCCCF)c2ccccc12 | 441 | 586 | 107 | 57 | –
COC(=O)[C@H](CO)NC(=O)c1cn(CCCCCF)c2ccccc12 | 200 | 625 | 123 | 41 | –
COC(=O)[C@@H](CO)NC(=O)c1cn(CCCCCF)c2ccccc12 | – | – | – | – | Emax (Cannabinoid receptor 2 [5]; filed as agonist): 46%; Emax (Cannabinoid receptor 1 [6]; filed as agonist): 66%
COC(=O)[C@@H](CC(C)C)NC(=O)c1cn(CCCCCF)c2ccccc12 | 23.9 | 53.2 | 150 | 112 | –
COC(=O)[C@@H](Cc1c[nH]c2ccccc12)NC(=O)c1cn(CCCCCF)c2ccccc12 | – | – | – | – | Emax (Cannabinoid receptor 2 [5]): 17%; Emax (Cannabinoid receptor 1 [6]): 9%
COC(=O)CNC(=O)c1cn(CCCCCF)c2ccccc12 | – | – | – | – | Emax (Cannabinoid receptor 2 [5]): 12%; Emax (Cannabinoid receptor 1 [6]; filed as agonist): 40%
COC(=O)[C@H](CCCCN)NC(=O)c1cn(CCCCCF)c2ccccc12 | – | – | – | – | Emax (Cannabinoid receptor 2 [5]): 4%; Emax (Cannabinoid receptor 1 [6]): 12%
COC(=O)[C@@H](NC(=O)c1cn(CCCCCF)c2ccccc12)C(C)(C)C | – | – | – | – | Emax (Cannabinoid receptor 1 [7]): 110%; EC50 (Cannabinoid receptor 1 [8]): 0.45 nM; Emax (Cannabinoid receptor 2 [9]): 94%; EC50 (Cannabinoid receptor 2 [10]): 7.4 nM
COC(=O)[C@H]1CCCN1C(=O)c1cn(CCCCCF)c2ccccc12 | – | – | – | – | Emax (Cannabinoid receptor 2 [5]): 7%; Emax (Cannabinoid receptor 1 [6]): 33%
COC(=O)[C@H](NC(=O)c1cn(CCCCCF)c2ccccc12)C(C)(C)C | 16.4 | 56.5 | 129 | 96 | –
COC(=O)[C@H](CCC(N)=O)NC(=O)c1cn(CCCCCF)c2ccccc12 | – | 199 | – | 90 | Emax (Cannabinoid receptor 1 [6]; filed as agonist): 94%
COC(=O)[C@H](C)NC(=O)c1cn(CCCCCF)c2ccccc12 | 78.8 | 59.5 | 108 | 86 | –
COC(=O)[C@@H](NC(=O)c1cn(CCCCCF)c2ccccc12)C(C)C | – | – | – | – | Emax (Cannabinoid receptor 1 [7]): 107%; EC50 (Cannabinoid receptor 1 [8]): 2.4 nM; Emax (Cannabinoid receptor 2 [9]): 94%; EC50 (Cannabinoid receptor 2 [10]): 4.6 nM
COC(=O)[C@H](CCSC)NC(=O)c1cn(CCCCCF)c2ccccc12 | 358 | 59.6 | 151 | 81 | –
COC(=O)[C@H](CC(C)C)NC(=O)c1cn(CCCCCF)c2ccccc12 | 25.5 | 7.16 | 136 | 99 | –
COC(=O)[C@H](Cc1c[nH]c2ccccc12)NC(=O)c1cn(CCCCCF)c2ccccc12 | – | – | – | – | Emax (Cannabinoid receptor 2 [5]): 37%; Emax (Cannabinoid receptor 1 [6]): 34%
COC(=O)[C@H](Cc1ccc(O)cc1)NC(=O)c1cn(CCCCCF)c2ccccc12 | 182 | 87.7 | 135 | 98 | –
COC(=O)[C@@H](CCC(N)=O)NC(=O)c1cn(CCCCCF)c2ccccc12 | 3630 | 445 | 116 | 76 | –
COC(=O)[C@@H](NC(=O)c1cn(CCCCCF)c2ccccc12)[C@@H](C)O | 49 | 148 | 134 | 60 | –
CC[C@@H](C)[C@@H](NC(=O)c1cn(CCCCCF)c2ccccc12)C(=O)OC | 33.5 | 26.8 | 121 | 107 | –
COC(=O)[C@H](NC(=O)c1cn(CCCCCF)c2ccccc12)C(C)C | 104 | 16.2 | 130 | 107 | –
COC(=O)[C@@H](CCCCN)NC(=O)c1cn(CCCCCF)c2ccccc12 | – | 1270 | – | 74 | Emax (Cannabinoid receptor 1 [6]; filed as agonist): 58%
COC(=O)[C@@H](CCSC)NC(=O)c1cn(CCCCCF)c2ccccc12 | 206 | 95 | 139 | 90 | –
COC(=O)[C@@H]1CCCN1C(=O)c1cn(CCCCCF)c2ccccc12 | 20.7 | 13.4 | 106 | 86 | –
COC(=O)[C@H](NC(=O)c1cn(CCCCCF)c2ccccc12)[C@H](C)O | 2310 | 93.4 | 105 | 81 | –
CC[C@H](C)[C@H](NC(=O)c1cn(CCCCCF)c2ccccc12)C(=O)OC | 27.6 | 19.2 | 145 | 124 | –
COC(=O)[C@@H](Cc1ccc(O)cc1)NC(=O)c1cn(CCCCCF)c2ccccc12 | – | – | – | – | Emax (Cannabinoid receptor 2 [5]; filed as agonist): 40%; Emax (Cannabinoid receptor 1 [6]; filed as agonist): 57%
COC(=O)[C@H](Cc1ccccc1)NC(=O)c1cn(CCCCCF)c2ccccc12 | 4.63 | 7.41 | 108 | 99 | EC50 (Cannabinoid receptor 1 [1]; read-out: pEC50 (converted)): 4.57 nM
COC(=O)[C@@H](C)NC(=O)c1cn(CCCCCF)c2ccccc12 | – | 478 | 71 | 72 | –
